Results on four molecules are retold here after patent publication US20080071089A1, “Process for the Manufacture of Rabeprazole Sodium” (Lupin Limited, priority 2005, published 2008).

The conditions of series [1]: for Particle size: MALVERN mastersizer 2000, dispersant: light liquid paraffin; for mean particle diameter: amorphous solid as isolated and dried.
For series [2] the following is noted: versus product with particle size of above 100 μm.
The conditions of series [3]: 75% relative humidity, 40° C.

For `COCCCOc1ccnc(C[S+]([O-])c2nc3ccccc3[nH]2)c1C.[Na]` (racemic) [Example 6 of U.S. Pat. No. 5045552, (±)sodium-2-[[[4-(3-methoxypropoxy)-3-methyl-pyridinyl]methyl]sulfinyl]1H-benzimidazole, reference compound], the Particle size in series [1] fell in the range of 80 to 150 μm.

Take `COCCCOc1ccnc(C[S+]([O-])c2nc3ccccc3[nH]2)c1C.[Na]` (racemic) [Example 2, (±)sodium-2-[[[4-(3-methoxypropoxy)-3-methyl-pyridinyl]methyl]sulfinyl]1H-benzimidazole]: in series [1], the Particle size was in the range of 15 to 55 μm and the mean particle diameter lay in the range of 15 to 55 μm.

As for “(±)sodium-2-[[[4-(3-methoxypropoxy)-3-methyl-pyridinyl]methyl]sulfinyl]1H-benzimidazole [amorphous rabeprazole sodium]”, in series [2], the bioavailability entry is reported as “better bioavailability”. This molecule yielded a mean particle diameter in series [1] of 10 to 55 μm. The stability result in series [3] is on record as “stable”.

For `COCCCOc1ccnc(C[S+]([O-])c2nc3ccccc3[nH]2)c1C.[Na]` (racemic) [Example 1, (±)sodium-2-[[[4-(3-methoxypropoxy)-3-methyl-pyridinyl]methyl]sulfinyl]1H-benzimidazole], in series [1], the Particle size was 10 to 50 μm and the mean particle diameter lay in the range of 10 to 50 μm.
